Results from the supplement of paper PMC10307832.

Assays:
Experiment in all cases: relative viability (nuclei count vs DMSO), 5 days (fraction); higher = more cells survive
201T = system: 201T
Outline: (§1)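 Lung cancer cell lines were pin-tool dosed in 1536-well plates on the day after seeding, with either a lone drug or a fixed anchor-drug dose plus five library-drug doses (not always all listed) in √10 steps. Nuclei were counted on 4× images after 5 days. Relative viability is the ratio of treated-well to vehicle-well nuclei counts, with each value a median of duplicate plates.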

A-427 = system: A-427
Outline: as §1

BEN = system: BEN
Outline: as §1

COR-L23 = system: COR-L23
Outline: as §1

EKVX = system: EKVX
Outline: as §1

HARA = system: HARA
Outline: as §1

HCC-15 = system: HCC-15
Outline: as §1

HCC-44 = system: HCC-44
Outline: as §1

HCC-827 = system: HCC-827
Outline: as §1

NCI-H1437 = system: NCI-H1437
Outline: as §1

NCI-H1650 = system: NCI-H1650
Outline: as §1

NCI-H1666 = system: NCI-H1666
Outline: as §1

NCI-H1792 = system: NCI-H1792
Outline: as §1

NCI-H1975 = system: NCI-H1975
Outline: as §1

NCI-H2342 = system: NCI-H2342
Outline: as §1

NCI-H23 = system: NCI-H23
Outline: as §1

NCI-H358 = system: NCI-H358
Outline: as §1

NCI-H441 = system: NCI-H441
Outline: as §1

NCI-H596 = system: NCI-H596
Outline: as §1

NCI-H650 = system: NCI-H650
Outline: as §1

NCI-H838 = system: NCI-H838
Outline: as §1

SK-MES-1 = system: SK-MES-1
Outline: as §1

SW 900 = system: SW 900
Outline: as §1

## O=c1cc(-c2cccc3c2Sc2ccccc2S3)oc(N2CCOCC2)c1 + COc1cccc2cc(-c3nc([C@H]4CC[C@H](C(=O)O)CC4)n4ncnc(N)c34)[nH]c12 [OSI-027] (partner 0.5 µM)
201T; first compound 0.08 µM
  relative viability: 0.876
201T; first compound 0.8 µM
  relative viability: 0.591
201T; first compound 2.53 µM
  relative viability: 0.695
201T; first compound 8 µM
  relative viability: 0.734
A-427; first compound 0.08 µM
  relative viability: 0.48
A-427; first compound 0.253 µM
  relative viability: 0.48
A-427; first compound 0.8 µM
  relative viability: 0.573
A-427; first compound 8 µM
  relative viability: 0.475
BEN; first compound 0.08 µM
  relative viability: 0.279
BEN; first compound 0.253 µM
  relative viability: 0.268
BEN; first compound 0.8 µM
  relative viability: 0.281
BEN; first compound 2.53 µM
  relative viability: 0.298
BEN; first compound 8 µM
  relative viability: 0.321
COR-L23; first compound 0.08 µM
  relative viability: 0.8
COR-L23; first compound 0.253 µM
  relative viability: 1.21
COR-L23; first compound 0.8 µM
  relative viability: 0.892
COR-L23; first compound 2.53 µM
  relative viability: 0.801
COR-L23; first compound 8 µM
  relative viability: 1
EKVX; first compound 0.08 µM
  relative viability: 0.722
EKVX; first compound 0.253 µM
  relative viability: 0.812
EKVX; first compound 0.8 µM
  relative viability: 0.678
EKVX; first compound 2.53 µM
  relative viability: 0.715
EKVX; first compound 8 µM
  relative viability: 0.67
HARA; first compound 0.08 µM
  relative viability: 0.458
HARA; first compound 0.253 µM
  relative viability: 0.624
HARA; first compound 0.8 µM
  relative viability: 0.566
HARA; first compound 2.53 µM
  relative viability: 0.424
HARA; first compound 8 µM
  relative viability: 0.481
HCC-15; first compound 0.08 µM
  relative viability: 0.633
HCC-15; first compound 0.253 µM
  relative viability: 0.765
HCC-15; first compound 0.8 µM
  relative viability: 0.733
HCC-15; first compound 2.53 µM
  relative viability: 0.634
HCC-15; first compound 8 µM
  relative viability: 0.611
HCC-44; first compound 0.08 µM
  relative viability: 0.419
HCC-44; first compound 0.253 µM
  relative viability: 0.561
HCC-44; first compound 2.53 µM
  relative viability: 0.343
HCC-44; first compound 8 µM
  relative viability: 0.499
HCC-827; first compound 0.08 µM
  relative viability: 0.802
HCC-827; first compound 0.253 µM
  relative viability: 0.877
HCC-827; first compound 0.8 µM
  relative viability: 0.947
HCC-827; first compound 2.53 µM
  relative viability: 0.643
HCC-827; first compound 8 µM
  relative viability: 0.897
NCI-H1437; first compound 0.08 µM
  relative viability: 0.885
NCI-H1437; first compound 0.253 µM
  relative viability: 1.17
NCI-H1437; first compound 0.8 µM
  relative viability: 1.01
NCI-H1437; first compound 2.53 µM
  relative viability: 0.891
NCI-H1437; first compound 8 µM
  relative viability: 1.02
NCI-H1650; first compound 0.08 µM
  relative viability: 0.615
NCI-H1650; first compound 0.253 µM
  relative viability: 0.593
NCI-H1650; first compound 0.8 µM
  relative viability: 0.506
NCI-H1650; first compound 2.53 µM
  relative viability: 0.521
NCI-H1650; first compound 8 µM
  relative viability: 0.561
NCI-H1666; first compound 0.08 µM
  relative viability: 0.838
NCI-H1666; first compound 0.253 µM
  relative viability: 1.06
NCI-H1666; first compound 0.8 µM
  relative viability: 0.923
NCI-H1666; first compound 2.53 µM
  relative viability: 0.832
NCI-H1666; first compound 8 µM
  relative viability: 0.885
NCI-H1792; first compound 0.08 µM
  relative viability: 0.775
NCI-H1792; first compound 0.253 µM
  relative viability: 0.803
NCI-H1792; first compound 0.8 µM
  relative viability: 0.663
NCI-H1792; first compound 2.53 µM
  relative viability: 0.647
NCI-H1792; first compound 8 µM
  relative viability: 0.581
NCI-H1975; first compound 0.08 µM
  relative viability: 0.74
NCI-H1975; first compound 0.253 µM
  relative viability: 0.993
NCI-H1975; first compound 0.8 µM
  relative viability: 0.793
NCI-H1975; first compound 2.53 µM
  relative viability: 0.587
NCI-H1975; first compound 8 µM
  relative viability: 0.503
NCI-H2342; first compound 0.08 µM
  relative viability: 0.569
NCI-H2342; first compound 0.253 µM
  relative viability: 0.607
NCI-H2342; first compound 0.8 µM
  relative viability: 0.545
NCI-H2342; first compound 2.53 µM
  relative viability: 0.594
NCI-H2342; first compound 8 µM
  relative viability: 0.568
NCI-H23; first compound 0.08 µM
  relative viability: 0.511
NCI-H23; first compound 0.253 µM
  relative viability: 0.739
NCI-H23; first compound 0.8 µM
  relative viability: 0.519
NCI-H23; first compound 2.53 µM
  relative viability: 0.54
NCI-H23; first compound 8 µM
  relative viability: 0.697
NCI-H358; first compound 0.08 µM
  relative viability: 0.836
NCI-H358; first compound 0.253 µM
  relative viability: 0.999
NCI-H358; first compound 0.8 µM
  relative viability: 0.815
NCI-H358; first compound 2.53 µM
  relative viability: 0.807
NCI-H358; first compound 8 µM
  relative viability: 0.869
NCI-H441; first compound 0.08 µM
  relative viability: 0.5
NCI-H441; first compound 0.253 µM
  relative viability: 0.813
NCI-H441; first compound 0.8 µM
  relative viability: 0.671
NCI-H441; first compound 2.53 µM
  relative viability: 0.645
NCI-H441; first compound 8 µM
  relative viability: 0.761
NCI-H596; first compound 0.08 µM
  relative viability: 0.69
NCI-H596; first compound 0.253 µM
  relative viability: 0.803
NCI-H596; first compound 0.8 µM
  relative viability: 0.695
NCI-H596; first compound 2.53 µM
  relative viability: 0.683
NCI-H596; first compound 8 µM
  relative viability: 0.662
NCI-H650; first compound 0.08 µM
  relative viability: 0.469
NCI-H650; first compound 0.253 µM
  relative viability: 0.548
NCI-H650; first compound 0.8 µM
  relative viability: 0.508
NCI-H650; first compound 8 µM
  relative viability: 0.562
NCI-H838; first compound 0.08 µM
  relative viability: 0.344
NCI-H838; first compound 0.253 µM
  relative viability: 0.417
NCI-H838; first compound 0.8 µM
  relative viability: 0.312
NCI-H838; first compound 2.53 µM
  relative viability: 0.339
NCI-H838; first compound 8 µM
  relative viability: 0.41
SK-MES-1; first compound 0.08 µM
  relative viability: 0.534
SK-MES-1; first compound 0.253 µM
  relative viability: 0.633
SK-MES-1; first compound 0.8 µM
  relative viability: 0.601
SK-MES-1; first compound 2.53 µM
  relative viability: 0.521
SK-MES-1; first compound 8 µM
  relative viability: 0.547
SW 900; first compound 0.08 µM
  relative viability: 0.573
SW 900; first compound 0.253 µM
  relative viability: 0.697
SW 900; first compound 0.8 µM
  relative viability: 0.459
SW 900; first compound 2.53 µM
  relative viability: 0.494
SW 900; first compound 8 µM
  relative viability: 0.596
